# Assay results reported in ChEMBL document CHEMBL3098037, “Evaluation of benzoic acid derivatives as sirtuin inhibitors” (Bioorg Med Chem Lett, 2014).
# pIC50: −log10 of the molar value. Active and inactive are the calls of the source. The rule behind the calls is not given here.
# Tests used:
# [1] = molecular target: T1, NAD-dependent protein deacetylase sirtuin-1 (Homo sapiens) (UniProt Q96EB6); experiment: Inhibition of SIRT1 (unknown origin) at 1.6 mM by fluorescence assay
# T1 sequence (whole entry): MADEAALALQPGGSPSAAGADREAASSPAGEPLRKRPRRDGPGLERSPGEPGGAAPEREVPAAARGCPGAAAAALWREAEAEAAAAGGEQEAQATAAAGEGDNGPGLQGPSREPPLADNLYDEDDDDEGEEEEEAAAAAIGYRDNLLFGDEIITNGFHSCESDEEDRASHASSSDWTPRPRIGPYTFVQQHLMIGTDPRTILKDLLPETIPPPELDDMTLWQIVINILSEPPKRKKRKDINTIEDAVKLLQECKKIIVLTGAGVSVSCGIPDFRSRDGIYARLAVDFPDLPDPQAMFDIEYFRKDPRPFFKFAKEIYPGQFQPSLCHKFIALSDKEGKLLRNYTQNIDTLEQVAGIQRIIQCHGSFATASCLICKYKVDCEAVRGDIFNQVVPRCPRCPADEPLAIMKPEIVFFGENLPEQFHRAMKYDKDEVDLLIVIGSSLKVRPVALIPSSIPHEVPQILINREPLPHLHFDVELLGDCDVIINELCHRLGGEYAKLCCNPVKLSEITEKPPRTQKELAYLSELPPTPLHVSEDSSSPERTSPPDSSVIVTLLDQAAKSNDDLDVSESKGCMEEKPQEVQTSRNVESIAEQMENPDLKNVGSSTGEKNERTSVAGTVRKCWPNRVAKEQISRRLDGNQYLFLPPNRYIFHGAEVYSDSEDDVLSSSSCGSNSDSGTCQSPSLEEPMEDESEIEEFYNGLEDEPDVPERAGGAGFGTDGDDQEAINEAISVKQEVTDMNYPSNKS
# Saccharomyces cerevisiae [2] = experiment: Inhibition of Sir2p in yeast DMY2844 assessed as growth inhibition after 48 hrs
# [3] = molecular target: T2, NAD-dependent protein deacetylase sirtuin-2 (Homo sapiens) (UniProt Q8IXJ6); experiment: Inhibition of SIRT2 (unknown origin) at 1.6 mM by fluorescence assay
# T2 sequence (whole entry): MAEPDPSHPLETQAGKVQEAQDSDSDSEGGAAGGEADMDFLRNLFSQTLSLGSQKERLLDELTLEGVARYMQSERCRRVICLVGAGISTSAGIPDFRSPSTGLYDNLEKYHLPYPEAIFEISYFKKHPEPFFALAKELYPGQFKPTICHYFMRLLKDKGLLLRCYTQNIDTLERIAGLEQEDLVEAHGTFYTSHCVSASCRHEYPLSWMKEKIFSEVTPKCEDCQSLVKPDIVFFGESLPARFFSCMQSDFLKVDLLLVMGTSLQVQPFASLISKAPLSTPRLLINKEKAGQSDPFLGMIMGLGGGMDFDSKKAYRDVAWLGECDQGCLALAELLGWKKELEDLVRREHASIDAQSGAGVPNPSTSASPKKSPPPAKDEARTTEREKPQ
# Saccharomyces cerevisiae [4] = experiment: Inhibition of Sir2p in yeast DMY2844 assessed as growth inhibition at 800 uM after 48 hrs
# [5] = Cytotoxicity against human MIAPaCa2 cells; assay type: functional, cell-based; details: MIA PaCa-2
# A549 = experiment: Cytotoxicity against human A549 cells; assay type: functional, cell-based
# NCI-H460 = experiment: Cytotoxicity against human NCI-H460 cells; assay type: functional, cell-based
# DU-145 = experiment: Cytotoxicity against human DU145 cells; assay type: functional, cell-based
MIC (Saccharomyces cerevisiae [2]) [µM],inhibition (Saccharomyces cerevisiae [4]),Structure (SMILES),other results
200,–,CN(C)c1ccc(C(=O)O)cc1,inhibition [1]: 25.3%; inhibition [3]: 30.3%
–,inactive,CN(C)c1ccc([N+](=O)[O-])cc1,–
–,inactive,CN(C)c1ccc(S(=O)(=O)O)cc1,–
–,inactive,O=C(O)c1ccccc1,–
800,–,Nc1ccc(C(=O)O)cc1,–
–,inactive,CN(C)c1ccc(Br)cc1,–
–,inactive,CN(C)c1ccccc1C(=O)O,–
800,–,Cc1ccc(C(=O)O)cc1,–
–,inactive,CN(C)c1ccc(C(N)=O)cc1,–
400,–,COC(=O)c1ccc(N(C)C)cc1,–
400,–,CNc1ccc(C(=O)O)cc1,–
200,–,CC(C)c1ccc(C(=O)O)cc1,–
–,–,CC[n+]1c(C=CC=C2N(C)c3ccccc3C2(C)C)sc2ccccc21,pIC50 [5]: 8.00; pIC50 (A549): 8.00; pIC50 (NCI-H460): 8.00; pIC50 (DU-145): 8.00
–,inactive,CN(C)c1cccc(C(=O)O)c1,–
–,inactive,C[N+](C)(C)c1ccc(C(=O)[O-])cc1,–

Structure (SMILES),MIC (Saccharomyces cerevisiae [2]) [µM],inhibition (Saccharomyces cerevisiae [4]),other results
CN(C)c1ccccc1,–,inactive,–
CC(C)(C)c1ccc(C(=O)O)cc1,50,–,inhibition [1]: 54.8%; inhibition [3]: 28%
